{
  "source": "patent EP2935252B1",
  "about": "“NOVEL BIS-CHROMONE DERIVATIVES, METHODS FOR THEIR PREPARATION AND USES THEREOF” (Rijksuniversiteit te Groningen, priority 2012, dated 2014)",
  "key": {"LAD2 mast cell line": {"tested_on": "LAD2 mast cell line", "assay": "β-hexosaminidase release assay: inhibition of Compound 48/80-evoked mast cell degranulation", "assay_type": "cell-based, human", "details": "for IC50: LAD2 cells; for efficacy: concentration response curves, Fig. 3, Compound 48/80 1.0 µM; for change in inhibitory activity after photoisomerization: non-irradiated vs 365 nm irradiated; for potency relative to DSCG: β-hexosaminidase release assays, Fig. 3", "method": "LAD2 Cell culture The human mast cell line LAD2 was kindly provided by Dr. A. Kirshenbaum (National Institute of Allergy and Infectious Diseases, Bethesda, MD). LAD2 cells were cultured in suspension at 37 °C, 95% relative humidity and 5% CO2 in StemPro-34 Serum-free medium (Invitrogen) supplemented with 2 mM L-glutamine (Sigma Aldrich), 100 IU/mL penicillin (Sigma Aldrich), 100 µg/mL streptomycin (Sigma Aldrich) and 100 ng/ml rhSCF (Invitrogen). Cells were not allowed to grow beyond a density of 5.0 x 10^5 cells/mL and fresh medium was supplied once a week.\nβ-Hexosaminidase Assay β-Hexosaminidase release was measured according to a previously published method.^28 In short, 50 µL of supernatant was transferred to a 96-well plate. To this 100 µL of a 2 mg/mL solution of p-nitrophenyl- N-acetyl-D-glucosaminidine in citrate buffer pH 4.5 was added. The plate was incubated at 37 °C for 1 h. The reaction was stopped by adding 100 µL of 0.4 M glycine solution and the absorbance was measured on a plate reader at a wavelength of 405 nm. Subsequently, the percentage released β-hexosaminidase was determined by comparison with the absorption of cell lysate of the same cells using the following formula: (supernatant)/(supernatant + lysate) × 100% = % Reaased β−Hexosaminidase. [formula]\nInhibitory Activity Tests LAD2 cells were suspended in HEPES buffer at a concentration of 50,000 cells/mL. 80 µL of cell suspension was transferred to a microreaction cup to which 10 µL of inhibitor solution was added. This was incubated at 37 °C for 30 min after which 10 µL of a Compound 48/80 solution was added. Next, the cell suspension was incubated for 30 min at 37 °C and the β-hexosaminidase release was assayed.\nMAC and PAC seem to have an almost 100 times greater inhibitory potency than DSCG.\nNext, the difference in inhibitory activity between the two photoisomers of DAC, MAC and PAC was determined. The inhibitory activity was determined for each compound at two concentrations that were on the steep part of the concentration response curve, because at these concentrations a possible difference in inhibitory activity is best detectable. LAD2 cells were incubated with either non-irradiated solutions of DAC, MAC and PAC or with solutions that were irradiated with 365 nm light prior incubation. After evoking a degranulation with Compound 48/80, β-hexosaminidase release was determined.. […] At a concentration of 10 µM the relative difference in inhibitory activity between the two forms of PAC is 25% (see Figure 4)."}, "[1]": {"assay": "Ratio of trans and cis photoisomers determined by RP-HPLC at the isosbestic point", "assay_type": "physicochemical", "method": "Photoswitching Experiments Irradiation experiments were performed with a Spectroline ENB-280C/FE UV lamp (365 nm) and Thor Labs OSL1-EC Fiber Illuminator (white light).\nThe photoswitchable behavior of DAC, MAC and PAC was studied using UV-VIS spectroscopy and RP-HPLC. The trans-isomers of DAC, MAC and PAC have a characteristic absorbance maximum between 300 and 400 nm in water. This absorbance maximum decreases when the molecules are photoswitched to their cis-isomers and a new absorbance maximum appears around 430 nm (Fig. 2A-C).^25 Isosbestic points at 405 nm (DAC), 270 nm (MAC) and 270 nm (PAC) clearly illustrate the selective isomerization and reversibility of the photoswitching process. Using RP-HPLC, the ratio of photoisomers was determined for both the non-irradiated and 365 nm-irradiated forms of DAC, MAC and PAC (Table 1). Higher photostationary states were obtained when the photoswitchable inhibitors were irradiated with 365 nm light in DMSO as compared to water (Table 1). Therefore, the compounds were switched at a high concentration in DMSO and diluted in water to obtain a maximum concentration of 1% DMSO (v/v). […]\nTable 1 Ratio of trans and cis isomers of the photoswitchable inhibitors under different conditions. Ratios are determined at the isosbestic point (DAC=405 nm, MAC=270 nm, PAC=270 nm) with RP-HPLC (C18, flow 1 mL/min, MeCN and H3PO4pH=3.0)."}, "[2]": {"details": "Homo sapiens, light or radiation study, degranulation evoked by 1.0 µM Compound 48/80, non-irradiated inhibitors, 30 min pre-incubation, n=3"}},
  "data": [
    {"molecule": "O=C([O-])c1cc(=O)c2cc(/N=N/c3ccc4oc(C(=O)[O-])cc(=O)c4c3)ccc2o1.[Na+].[Na+]", "note": "[DAC, Sodium (E)-6,6'-(diazene-1,2-diyl)bis(4-oxo-4H-chromene-2-carboxylate)]", "values": [
      {"measurement": "inhibitory activity", "setting": "LAD2 mast cell line; Compound 48/80 1.0 µM", "value": "significantly greater inhibitory activity than the original drug DSCG"},
      {"measurement": "IC50", "setting": "LAD2 mast cell line; [2]", "value": 272, "unit": "µM"},
      {"measurement": "efficacy", "setting": "LAD2 mast cell line", "value": "greater efficacy than PAC"},
      {"measurement": "change in inhibitory activity after photoisomerization", "setting": "LAD2 mast cell line", "value": "a significant change in inhibitory activity after photoisomerization was not observed"}
    ]},
    {"molecule": "O=C([O-])c1cc(=O)c2c(OCC(O)COc3cccc4oc(C(=O)[O-])cc(=O)c34)cccc2o1.[Na+].[Na+]", "note": "[DSCG, DiSodiumCromoGlycate, reference compound]", "values": [
      {"measurement": "inhibitory activity", "setting": "LAD2 mast cell line; Compound 48/80 1.0 µM", "value": "did not show any inhibitory activity"},
      {"measurement": "IC50", "setting": "LAD2 mast cell line; degranulation evoked by 1.0 µM Compound 48/80, n=3", "value": "> 1000", "unit": "µM"},
      {"measurement": "inhibitory activity", "setting": "LAD2 mast cell line; lower concentration of Compound 48/80 (0.1 µM), data not shown", "value": "able to inhibit mast cell degranulation"}
    ]},
    {"molecule": "O=C([O-])c1cc(=O)c2c(OCc3cccc(/N=N/c4cccc(COc5cccc6oc(C(=O)[O-])cc(=O)c56)c4)c3)cccc2o1.[Na+].[Na+]", "note": "[MAC, Sodium (E)-5,5'-(((diazene-1,2-diylbis(3,1-phenylene))bis(methylene))bis(oxy))bis(4-oxo-4H-chromene-2-carboxylate)]", "values": [
      {"measurement": "inhibitory activity", "setting": "LAD2 mast cell line; Compound 48/80 1.0 µM", "value": "significantly greater inhibitory activity than the original drug DSCG"},
      {"measurement": "IC50", "setting": "LAD2 mast cell line; [2]", "value": 10, "unit": "µM"},
      {"measurement": "efficacy", "setting": "LAD2 mast cell line", "value": "greater efficacy than PAC"},
      {"measurement": "potency relative to DSCG", "setting": "LAD2 mast cell line", "value": "~100", "unit": "times"}
    ]},
    {"molecule": "O=C([O-])c1cc(=O)c2c(OCc3ccc(/N=N/c4ccc(COc5cccc6oc(C(=O)[O-])cc(=O)c56)cc4)cc3)cccc2o1.[Na+].[Na+]", "note": "[PAC, Sodium (E)-5,5'-(((diazene-1,2-diylbis(4,1-phenylene))bis(methylene))bis(oxy))bis(4-oxo-4H-chromene-2-carboxylate)]", "values": [
      {"measurement": "inhibitory activity", "setting": "LAD2 mast cell line; Compound 48/80 1.0 µM", "value": "significantly greater inhibitory activity than the original drug DSCG"},
      {"measurement": "inhibition at 10 µM", "setting": "LAD2 mast cell line; Homo sapiens, LAD2, light or radiation study, concentration of 10 µM, non-irradiated form more active than irradiated form, read-out: relative difference in inhibitory activity between non-irradiated and 365 nm irradiated form", "value": 25, "unit": "%"},
      {"measurement": "IC50", "setting": "LAD2 mast cell line; [2]", "value": 28, "unit": "µM"},
      {"measurement": "change in inhibitory activity after photoisomerization", "setting": "LAD2 mast cell line", "value": "A significant difference was observed"},
      {"measurement": "potency relative to DSCG", "setting": "LAD2 mast cell line", "value": "~100", "unit": "times"},
      {"measurement": "cis isomer in the photo stationary state (PSS)", "setting": "[1]; irradiated form (365 nm)", "value": 81, "unit": "%"},
      {"measurement": "trans isomer in the photo stationary state (PSS)", "setting": "[1]; non-irradiated form", "value": 91, "unit": "%"}
    ]}
  ]
}
